Measured values as given in patent US6346514B1, “Pharmaceutical lysine-containing polypeptide compositions and methods of use thereof” (priority 1991, dated 2002).

Test system: Vibrio anguillarum (V-775)
Assay: Vaccine augmentation in Rainbow trout challenged with Vibrio anguillarum
Format: in vivo, Rainbow trout (Oncorhynchus mykiss)
Experimental: In the present investigation, fish were obtained and inoculated at approximately 12 weeks of age. Immunologic studies were conducted under a variety of conditions in which fish were provided with vaccination to observe vaccine augmentation, and under conditions in which no vaccine was provided prior to inoculum. The effects of exposure time, HM897 concentration, and vaccine on mortalities relative to control studies in which no HM897 was administered provided data for analysis of the immunologic effect of HM897.
The study was conducted using Rainbow trout (Oncorhynchus mykiss) to compare the effects of a standard fish vaccine to the protection provided by varying dosages of HM897. The fish were challenged with Vibrio anguillarum (V-775), a bacteria that causes fatal vibriosis, typically 3-5 days following pathogen exposure.
Rainbow Trout (Oncorhynchus mykiss) weighing approximately 5 grams were used as test organisms. The fish were obtained from Cran-Mar Trout Farm. Upon arrival at BRL's facility, the fish were quarantined for a minimum of seven days, and observed to be disease free. During this period, the fish were held at a stable temperature. There was consistent water quality in an aerated flow-through system with a flow rate of approximately 30 liters per hour. During the holding period the fish were observed daily for signs of disease, stress, injury, hemorrhaging, and external parasite. The fish were not fed 48 hours prior to testing.
The Rainbow trout used in this study weighed an average of 5 grams. The fish were divided into 21 groups with 50 fish per group. Each group of 50 fish was maintained in two 10-gallon tanks (25 fish/tank).
The level of bacterial dilution to achieve a LD75 (the level designed to kill 75% of the non-vaccinated fish) was a dilution of 10^−4. to 10^−5. The challenge bacteria were grown for 48 hours at 25° C in trypticase soy broth. The 10^−4 dilution was made from this broth in 0.9% saline. All fish excepting the control group that received no bacterial challenge were inoculated 7 days after exposure to HM897.
Rainbow trout hatchling were exposed to the concentration of HM897 as described below. Some of the fish had been vaccinated while others had received no vaccination. In each tank, fifty vaccinated or unvaccinated fish were exposed for a period of 5 minutes to HM897, and then removed and placed in an assigned tank according to the group number.
The positive control group (III) received a vaccine made from Vibrio anguillarum (V-775). This was made through a fermentation and extraction process in the BRL laboratory facility and is equivalent to the aquaculture industry standard vibrio vaccine.
All groups scheduled to be challenged with the Vibrio anguillarum bacterium were challenged at the LD75 dilution on day seven of the experiment by i.p. injection of 0.1 mL of 10^−4 bacterial dilution. The fish were observed daily for mortalities.

## Thr-Ala-Glu-Glu-Lys (TAEEK) [HM897]
Day 17, Group IVd: vaccinated, HM897 100 μg/38 liters
  Cumulative Mortalities: 17
Day 17, Group Va: not vaccinated, HM897 10 μg/38 liters
  Cumulative Mortalities: 33
Day 17, Group Vb: not vaccinated, HM897 25 μg/38 liters
  Cumulative Mortalities: 33
Day 17, Group Vc: not vaccinated, HM897 75 μg/38 liters
  Cumulative Mortalities: 34
Day 18, Group IVa: vaccinated, HM897 2.5 μg/38 liters
  Cumulative Mortalities: 13
Day 18, Group IVb: vaccinated, HM897 10 μg/38 liters
  Cumulative Mortalities: 7
Day 18, Group IVc: vaccinated, HM897 50 μg/38 liters
  Cumulative Mortalities: 10
Day 18, Group IVd: vaccinated, HM897 100 μg/38 liters
  Cumulative Mortalities: 17
Day 18, Group Va: not vaccinated, HM897 10 μg/38 liters
  Cumulative Mortalities: 33
Day 18, Group Vb: not vaccinated, HM897 25 μg/38 liters
  Cumulative Mortalities: 33
Day 18, Group Vc: not vaccinated, HM897 75 μg/38 liters
  Cumulative Mortalities: 34
Day 18, Group Vd: not vaccinated, HM897 150 μg/38 liters
  Cumulative Mortalities: 32
Day 19, Group IVa: vaccinated, HM897 2.5 μg/38 liters
  Cumulative Mortalities: 13
Day 19, Group IVb: vaccinated, HM897 10 μg/38 liters
  Cumulative Mortalities: 7
Day 19, Group IVc: vaccinated, HM897 50 μg/38 liters
  Cumulative Mortalities: 10
Day 19, Group IVd: vaccinated, HM897 100 μg/38 liters
  Cumulative Mortalities: 17
Day 19, Group Va: not vaccinated, HM897 10 μg/38 liters
  Cumulative Mortalities: 33
Day 19, Group Vb: not vaccinated, HM897 25 μg/38 liters
  Cumulative Mortalities: 33
Day 19, Group Vc: not vaccinated, HM897 75 μg/38 liters
  Cumulative Mortalities: 34
Day 19, Group Vd: not vaccinated, HM897 150 μg/38 liters
  Cumulative Mortalities: 32
Day 20, Group IVa: vaccinated, HM897 2.5 μg/38 liters
  Cumulative Mortalities: 13
Day 20, Group IVb: vaccinated, HM897 10 μg/38 liters
  Cumulative Mortalities: 7
Day 20, Group IVc: vaccinated, HM897 50 μg/38 liters
  Cumulative Mortalities: 10
Day 20, Group IVd: vaccinated, HM897 100 μg/38 liters
  Cumulative Mortalities: 17
Day 20, Group Va: not vaccinated, HM897 10 μg/38 liters
  Cumulative Mortalities: 33
Day 20, Group Vb: not vaccinated, HM897 25 μg/38 liters
  Cumulative Mortalities: 33
Day 20, Group Vc: not vaccinated, HM897 75 μg/38 liters
  Cumulative Mortalities: 34
Day 20, Group Vd: not vaccinated, HM897 150 μg/38 liters
  Cumulative Mortalities: 32
Day 21, Group IVa: vaccinated, HM897 2.5 μg/38 liters
  Cumulative Mortalities: 13
Day 21, Group IVb: vaccinated, HM897 10 μg/38 liters
  Cumulative Mortalities: 7
Day 21, Group IVc: vaccinated, HM897 50 μg/38 liters
  Cumulative Mortalities: 10
Day 21, Group IVd: vaccinated, HM897 100 μg/38 liters
  Cumulative Mortalities: 17
Day 21, Group Va: not vaccinated, HM897 10 μg/38 liters
  Cumulative Mortalities: 33
Day 21, Group Vb: not vaccinated, HM897 25 μg/38 liters
  Cumulative Mortalities: 33
Day 21, Group Vc: not vaccinated, HM897 75 μg/38 liters
  Cumulative Mortalities: 34
Day 21, Group Vd: not vaccinated, HM897 150 μg/38 liters
  Cumulative Mortalities: 32
Group IVa: vaccinated, HM897 2.5 μg/38 liters
  Percent Mortalities: 26%
Group IVb: vaccinated, HM897 10 μg/38 liters
  Percent Mortalities: 14%
Group IVc: vaccinated, HM897 50 μg/38 liters
  Percent Mortalities: 20%
Group IVd: vaccinated, HM897 100 μg/38 liters
  Percent Mortalities: 34%
Group Va: not vaccinated, HM897 10 μg/38 liters
  Percent Mortalities: 66%
Group Vb: not vaccinated, HM897 25 μg/38 liters
  Percent Mortalities: 66%
Group Vc: not vaccinated, HM897 75 μg/38 liters
  Percent Mortalities: 68%
Group Vd: not vaccinated, HM897 150 μg/38 liters
  Percent Mortalities: 64%
Group Ve: not vaccinated, HM897 250 μg/38 liters
  Percent Mortalities: 68%
HM897 exposure without vaccine (Groups Va to Ve)
  protection against the bacterial infection: no protection
Table XI-3, Group IVa: vaccinated, HM897 2.5 μg/38 liters
  Total Mortalities: 13
Table XI-3, Group IVb: vaccinated, HM897 10 μg/38 liters
  Total Mortalities: 7
Table XI-3, Group IVc: vaccinated, HM897 50 μg/38 liters
  Total Mortalities: 10
Table XI-3, Group IVd: vaccinated, HM897 100 μg/38 liters
  Total Mortalities: 17
Table XI-3, Group Va: not vaccinated, HM897 10 μg/38 liters
  Total Mortalities: 33
Table XI-3, Group Vb: not vaccinated, HM897 25 μg/38 liters
  Total Mortalities: 33
Table XI-3, Group Vc: not vaccinated, HM897 75 μg/38 liters
  Total Mortalities: 34
Table XI-3, Group Vd: not vaccinated, HM897 150 μg/38 liters
  Total Mortalities: 32
Table XI-3, Group Ve: not vaccinated, HM897 250 μg/38 liters
  Total Mortalities: 34
Table XI-4, Group IVa: vaccinated, HM897 2.5 μg/38 liters
  Total Mortalities: 13
Table XI-4, Group IVb: vaccinated, HM897 10 μg/38 liters
  Total Mortalities: 7
Table XI-4, Group IVc: vaccinated, HM897 50 μg/38 liters
  Total Mortalities: 10
Table XI-4, Group IVd: vaccinated, HM897 100 μg/38 liters
  Total Mortalities: 17
Table XI-4, Group Va: not vaccinated, HM897 10 μg/38 liters
  Total Mortalities: 33
Table XI-4, Group Vb: not vaccinated, HM897 25 μg/38 liters
  Total Mortalities: 33
Table XI-4, Group Vc: not vaccinated, HM897 75 μg/38 liters
  Total Mortalities: 34
Table XI-4, Group Vd: not vaccinated, HM897 150 μg/38 liters
  Total Mortalities: 32
Table XI-4, Group Ve: not vaccinated, HM897 250 μg/38 liters
  Total Mortalities: 34
Vaccinated fish exposed to HM897
  augmentation of vaccinations: statistically significant effect
